Test results as given in the supplement of paper PMC11061612.

Columns and labels:
[1] = tested on: P31-FUJ (Acute Myeloid Leukemia); assay: combination Emax (second highest fraction inhibited in the dose matrix, 72 h); higher = more inhibition; extreme values may be limits of the assay
Outline: (§1)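 Cell lines grown in DMEM/F12 or RPMI with 10% FBS were plated in 1536-well plates and held 24 hours at 37°C, 5% CO2 before 72 hours of exposure to two-drug dose matrices, with DMSO typically at 0.2%. CellTiter-Glo 2.0 luminescence gave viability, which was converted to inhibition. Vehicle wells were set to 0 and blank wells to 1. Combination Emax is the second-highest inhibition in the matrix, and Bliss excess is the observed combination effect minus the expected EA + EB − EA·EB, where EA and EB are the single-agent effects.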

[2] = tested on: TC-YIK (Other Solid Carcinomas); assay: as above
Outline: as §1

[3] = tested on: SNG-M (Endometrial Carcinoma); assay: as above
Outline: as §1

[4] = tested on: HCC38 (Breast Carcinoma); assay: as above
Outline: as §1

[5] = tested on: SK-LMS-1 (Other Solid Carcinomas); assay: as above
Outline: as §1

[6] = tested on: SK-UT-1 (Other Solid Carcinomas); assay: as above
Outline: as §1

[7] = tested on: HCT-116 (Colorectal Carcinoma); assay: as above
Outline: as §1

[8] = tested on: WSU-DLCL2 (B-Cell Non-Hodgkin's Lymphoma); assay: as above
Outline: as §1

[9] = tested on: CS1 (Chondrosarcoma); assay: as above
Outline: as §1

[10] = tested on: D-392MG (Glioblastoma); assay: as above
Outline: as §1

[11] = tested on: DOK (Oral Cavity Carcinoma); assay: as above
Outline: as §1

[12] = tested on: NOMO-1 (Acute Myeloid Leukemia); assay: as above
Outline: as §1

[13] = tested on: SW48 (Colorectal Carcinoma); assay: as above
Outline: as §1

[14] = tested on: D-283MED (Other Solid Carcinomas); assay: Bliss excess, mean over the matrix (fraction); higher = more synergy;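 note: after 72 h of two-drug dosing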
Outline: as §1

SMILES	combination Emax [1]	combination Emax [2]	combination Emax [3]	combination Emax [4]	combination Emax [5]	combination Emax [6]	combination Emax [7]	combination Emax [8]	combination Emax [9]	combination Emax [10]	combination Emax [11]	combination Emax [12]	combination Emax [13]	Bliss excess [14]
C=CCn1c(=O)c2cnc(Nc3ccc(N4CCN(C)CC4)cc3)nc2n1-c1cccc(C(C)(C)O)n1 [AZD1775] + CCc1c2c(nc3ccc(O)cc13)-c1cc3c(c(=O)n1C2)COC(=O)[C@]3(O)CC [SN-38] (first compound max 1 µM, partner max 0.3 µM)	0.985	1	0.77	0.751	0.898	0.982	0.866	1	0.786	0.569	0.745	0.992	0.857	-0.0258
C=CCn1c(=O)c2cnc(Nc3ccc(N4CCN(C)CC4)cc3)nc2n1-c1cccc(C(C)(C)O)n1 [AZD1775] + Nc1ccn([C@@H]2O[C@H](CO)[C@@H](O)C2(F)F)c(=O)n1 [Gemcitabine] (first compound max 1 µM, partner max 0.3 µM)	1	0.865	0.751	0.747	0.804	0.916	0.88	1	0.661	0.597	0.66	0.992	0.887	0.0097
CN(CCO)CC[C@H](CSc1ccccc1)Nc1ccc(S(=O)(=O)NC(=O)c2ccc(N3CCC([C@@H](O)c4ccccc4-c4ccc(Cl)cc4)CC3)cc2)cc1S(=O)(=O)C(F)(F)F [AZD4320] + CC(=O)O[C@H]1C(=O)[C@@]2(C)[C@H]([C@H](OC(=O)c3ccccc3)[C@]3(O)C[C@H](OC(=O)[C@H](O)[C@@H](NC(=O)c4ccccc4)c4ccccc4)C(C)=C1C3(C)C)[C@]1(OC(C)=O)CO[C@@H]1C[C@@H]2O [Paclitaxel] (first compound max 1 µM, 7x7, partner max 3 µM)	1	1	1	0.77	1	0.977	1	1	0.961	1	0.99	0.985	1	-0.0081
CN(CCO)CC[C@H](CSc1ccccc1)Nc1ccc(S(=O)(=O)NC(=O)c2ccc(N3CCC([C@@H](O)c4ccccc4-c4ccc(Cl)cc4)CC3)cc2)cc1S(=O)(=O)C(F)(F)F [AZD4320] + CS(=O)(=O)CCNCc1ccc(-c2ccc3ncnc(Nc4ccc(OCc5cccc(F)c5)c(Cl)c4)c3c2)o1 [Lapatinib] (first compound max 1 µM, 7x7, partner max 10 µM)	0.959	1	0.92	0.913	0.817	0.906	0.796	0.967	0.937	0.492	0.982	0.709	0.969	0.013
CN(CCO)CC[C@H](CSc1ccccc1)Nc1ccc(S(=O)(=O)NC(=O)c2ccc(N3CCC([C@@H](O)c4ccccc4-c4ccc(Cl)cc4)CC3)cc2)cc1S(=O)(=O)C(F)(F)F [AZD4320] + Nc1ccn([C@@H]2O[C@H](CO)[C@@H](O)C2(F)F)c(=O)n1 [Gemcitabine] (first compound max 1 µM, 7x7, partner max 0.3 µM)	0.959	1	0.913	0.813	0.984	0.978	0.899	1	0.789	0.96	0.859	0.987	0.972	-0.0335
Cc1c2c(nn1C)CSCc1cc(n(C)n1)CSc1cc(c3ccccc3c1)OCCCc1c(C(=O)O)n(C)c3c-2c(Cl)ccc13 [AZD5991] + CC(=O)O[C@H]1C(=O)[C@@]2(C)[C@H]([C@H](OC(=O)c3ccccc3)[C@]3(O)C[C@H](OC(=O)[C@H](O)[C@@H](NC(=O)c4ccccc4)c4ccccc4)C(C)=C1C3(C)C)[C@]1(OC(C)=O)CO[C@@H]1C[C@@H]2O [Paclitaxel] (first compound max 1 µM, 7x7, partner max 3 µM)	1	0.928	1	0.571	0.919	0.884	0.981	1	0.652	0.734	0.977	1	0.994	-0.0552
Cc1c2c(nn1C)CSCc1cc(n(C)n1)CSc1cc(c3ccccc3c1)OCCCc1c(C(=O)O)n(C)c3c-2c(Cl)ccc13 [AZD5991] + CS(=O)(=O)CCNCc1ccc(-c2ccc3ncnc(Nc4ccc(OCc5cccc(F)c5)c(Cl)c4)c3c2)o1 [Lapatinib] (first compound max 1 µM, 7x7, partner max 10 µM)	0.985	0.26	0.177	0.366	0.265	0.485	0.382	1	0.506	0.104	0.987	0.88	0.649	–
Cc1c2c(nn1C)CSCc1cc(n(C)n1)CSc1cc(c3ccccc3c1)OCCCc1c(C(=O)O)n(C)c3c-2c(Cl)ccc13 [AZD5991] + Nc1ccn([C@@H]2O[C@H](CO)[C@@H](O)C2(F)F)c(=O)n1 [Gemcitabine] (first compound max 1 µM, 7x7, partner max 0.3 µM)	0.992	0.877	0.882	0.711	0.83	0.904	0.828	1	0.445	0.642	0.684	0.997	0.822	0.0121
C[C@@H]1COCCN1c1cc(C2([S@](C)(=N)=O)CC2)nc(-c2ccnc3[nH]ccc23)n1 [AZD6738] + C1CC(C1)(C(=O)[O-])C(=O)[O-].N.N.[Pt+2] [Carboplatin] (first compound max 10 µM, 7x7, partner max 10 µM)	0.922	0.802	0.89	0.52	0.448	0.779	0.664	0.767	0.548	0.423	0.459	0.946	0.673	–
C[C@@H]1COCCN1c1cc(C2([S@](C)(=N)=O)CC2)nc(-c2ccnc3[nH]ccc23)n1 [AZD6738] + Nc1ccn([C@@H]2O[C@H](CO)[C@@H](O)C2(F)F)c(=O)n1 [Gemcitabine] (first compound max 10 µM, 7x7, partner max 0.3 µM)	1	0.893	0.934	0.744	0.858	0.979	0.947	1	0.734	0.625	0.782	1	0.818	-0.0179
Cc1cc2ncnn2cc1Nc1ncc2c(n1)n(C1CCOCC1)c(=O)n2C [AZD7648] + COc1cc([C@@H]2c3cc4c(cc3[C@@H](O[C@@H]3O[C@@H]5CO[C@@H](C)O[C@H]5[C@H](O)[C@H]3O)[C@H]3COC(=O)[C@H]23)OCO4)cc(OC)c1O [Etoposide] (first compound max 10 µM, 7x7, partner max 10 µM)	0.967	0.976	0.867	0.486	0.822	0.926	0.725	1	0.649	0.489	0.572	0.98	0.883	0.0835
C[C@@H](Nc1cc(F)cc(F)c1)c1cc(C(=O)N(C)C)cc2c(=O)cc(N3CCOCC3)oc12 [AZD8186] + C1CN(CCC1(C(=O)N[C@@H](CCO)C2=CC=C(C=C2)Cl)N)C3=NC=NC4=C3C=CN4 [AZD5363] (first compound max 10 µM, 7x7, partner max 10 µM)	0.521	0.294	0.429	0.262	0.494	0.344	0.47	1	0.264	0.363	0.655	0.45	0.557	-0.0143
C[C@@H](Nc1cc(F)cc(F)c1)c1cc(C(=O)N(C)C)cc2c(=O)cc(N3CCOCC3)oc12 [AZD8186] + CC(=O)c1c(C)c2cnc(Nc3ccc(N4CCNCC4)cn3)nc2n(C2CCCC2)c1=O [Palbociclib] (first compound max 10 µM, 7x7, partner max 10 µM)	0.277	0.741	0.432	0.209	0.808	0.231	0.684	0.762	0.513	0.446	0.538	0.568	0.617	0.113
N#Cc1cnc(Nc2cc(NC[C@H]3CNCCO3)c(C(F)(F)F)cn2)cn1 [SRA737] + O=c1[nH]cc(F)c(=O)[nH]1 [5-Fluorouracil] (first compound max 10 µM, 7x7, partner max 20 µM)	0.98	0.723	0.71	0.507	0.268	0.799	0.737	–	0.405	0.313	0.345	0.985	0.592	-0.0048
